Assay results: ChEMBL document CHEMBL1151131, “Bioactivity of the essential oil of Bupleurum fruticosum” (1989)
Calls of active or inactive are those of the source. The rule behind the calls is not given here.

Columns and labels:
Rattus norvegicus [1] = assay: Antiinflammatory activity against carrageenan-induced plantar edema in Wistar rat hind paw at 66 mg/kg, ip administered 1 hr before carrageenan challenge measured after 3 hrs; format: functional; conditions: route intraperitoneal
Uterus [2] = assay: Antispasmodic activity against oxytocin-induced contraction in Wistar rat uterus at 2.2 ug/ml; format: functional, tissue-based
Uterus [3] = assay: Antispasmodic activity against oxytocin-induced contraction in Wistar rat uterus at 1.1 ug/ml; format: functional, tissue-based
Rattus norvegicus [4] = assay: Antiinflammatory activity against carrageenan-induced plantar edema in Wistar rat hind paw at 33 mg/kg, ip administered 1 hr before carrageenan challenge measured after 3 hrs; format: functional; conditions: route intraperitoneal
Rattus norvegicus [5] = assay: Antiinflammatory activity against carrageenan-induced plantar edema in Wistar rat hind paw at 80 mg/kg, ip administered 1 hr before carrageenan challenge measured after 5 hrs; format: functional; conditions: route intraperitoneal
Rattus norvegicus [6] = assay: Antiinflammatory activity against carrageenan-induced plantar edema in Wistar rat hind paw at 40 mg/kg, ip administered 1 hr before carrageenan challenge measured after 5 hrs; format: functional; conditions: route intraperitoneal
Rattus norvegicus [7] = assay: Antiinflammatory activity against carrageenan-induced plantar edema in Wistar rat hind paw at 40 mg/kg, ip administered 1 hr before carrageenan challenge measured after 1 hrs; format: functional; conditions: route intraperitoneal
Rattus norvegicus [8] = assay: Antiinflammatory activity against carrageenan-induced plantar edema in Wistar rat hind paw at 80 mg/kg, ip administered 1 hr before carrageenan challenge measured after 3 hrs; format: functional; conditions: route intraperitoneal
Rattus norvegicus [9] = assay: Antiinflammatory activity against carrageenan-induced plantar edema in Wistar rat hind paw at 20 mg/kg, ip administered 1 hr before carrageenan challenge measured after 1 hrs; format: functional; conditions: route intraperitoneal
Rattus norvegicus [10] = assay: Antiinflammatory activity against carrageenan-induced plantar edema in Wistar rat hind paw at 80 mg/kg, ip administered 1 hr before carrageenan challenge measured after 1 hrs; format: functional; conditions: route intraperitoneal
Rattus norvegicus [11] = assay: Antiinflammatory activity against carrageenan-induced plantar edema in Wistar rat hind paw at 20 mg/kg, ip administered 1 hr before carrageenan challenge measured after 3 hrs; format: functional; conditions: route intraperitoneal
Rattus norvegicus [12] = assay: Antiinflammatory activity against carrageenan-induced plantar edema in Wistar rat hind paw at 40 mg/kg, ip administered 1 hr before carrageenan challenge measured after 3 hrs; format: functional; conditions: route intraperitoneal
Rattus norvegicus [13] = assay: Antiinflammatory activity against carrageenan-induced plantar edema in Wistar rat hind paw at 20 mg/kg, ip administered 1 hr before carrageenan challenge measured after 5 hrs; format: functional; conditions: route intraperitoneal

SMILES	Activity (Rattus norvegicus [1]) [%]	Activity (Uterus [2])	Activity (Uterus [3])	Activity (Rattus norvegicus [4]) [%]	Activity (Rattus norvegicus [5]) [%]	Activity (Rattus norvegicus [6]) [%]	Activity (Rattus norvegicus [7]) [%]	Activity (Rattus norvegicus [8]) [%]	Activity (Rattus norvegicus [9]) [%]	Activity (Rattus norvegicus [10]) [%]	Activity (Rattus norvegicus [11]) [%]	Activity (Rattus norvegicus [12]) [%]	Activity (Rattus norvegicus [13]) [%]
CC1=CCC2C(C1)C2(C)C (configuration not stated) [CARENE]	77	Active	Active	50.3	–	–	–	–	–	–	–	–	–
C=C1CCC2CC1C2(C)C (stereo not drawn) [BETA-PINENE]	–	–	–	–	31.9	14.9	27.5	32.2	20.5	8.7	15.1	19.2	16.7
CC1=CCC2CC1C2(C)C (stereo not drawn) [ALPHA-PINENE]	–	–	–	–	13.2	14	20.4	26.2	5.6	19	8.9	21	-1.6
